This note sets out measurements from patent US9757370B2, “Opsin-binding ligands, compositions and methods of use” (priority 2011, dated 2017).

In the assay the test system is P23H opsin. Put plainly: Rhodopsin purification and regeneration: pigment formation from P23H opsin after compound treatment of P23H cells. To be noted: for Fold Increase Over Control (480-500 nm absorbance): P23H cells treated 48 hours, regenerated with 9-cis-retinal (20 μM), fold increase over the DMSO control.

As for `CC1=C(C(O)c2ccc3c(c2)CCN(C(N)=O)C3)C(C)(C)CCC1` (centres unmarked) [Compound 2, 6-(hydroxy(2,6,6-trimethylcyclohex-1-enyl)methyl)-3,4-dihydroisoquinoline-2(1H)-carboxamide], for the setting “10 μM”, the “Fold Increase Over Control (480-500 nm absorbance)” value (shortened to “Fold Increase Over Control”) stood at 2.5 fold.

Turning to `C[C@H]1CCCC(C)(C)[C@@H]1[C@H](O)c1ccc2c(c1)CCN(C(N)=O)C2` [Compound 3, 6-((S)-hydroxy((1R,6S)-2,2,6-trimethylcyclohexyl)methyl)-3,4-dihydroisoquinoline-2(1H)-carboxamide], for the setting “10 μM”, the “Fold Increase Over Control” value is on record as 1.5 fold.

With `C[C@H]1CCCC(C)(C)[C@@H]1[C@@H](O)c1ccc2c(c1)CCN(C(N)=O)C2` [Compound 5, 6-((R)-hydroxy((1R,6S)-2,2,6-trimethylcyclohexyl)methyl)-3,4-dihydroisoquinoline-2(1H)-carboxamide], under “10 μM”, the “Fold Increase Over Control” value stood at 1.9 fold.

Turning to `CC(=O)/C=C/C1=C(C)CCCC1(C)C` [β-ionone, reference compound], the “Fold Increase Over Control” value (20 μM) was determined as 2.4 fold. Besides, the “regeneration of 500 nm absorbing pigment upon treatment with retinal (FIG. 1)” value (P23H opsin treated with 20 μM during mutant protein production, relative to vehicle (DMSO) alone) is on record as “increase in regeneration of 500 nm absorbing pigment”.
